Measured values: patent publication US12324855B2, “Method of safe administration of phosphorylated Tau peptide vaccine” (AC Immune SA, priority 2019, dated 2025)
Square brackets hold non-standard residues; d marks the D form. Ends that are not written are not given here. pS = N[C@@H](COP(=O)(O)O)C(=O)O

System: CD4+ T-cell response in PBMCs from 51 human donors
Assay: EpiScreen time course T-cell proliferation and IL-2 ELISPOT assays (Example 6)
Assay type: cell-based
Conditions: 5 μM peptide, 51 donors; for donors responding, taking into account borderline responses and donors responding in only one of the two assays: SI≥1.90 borderline; for donors responding in both IL-2 ELISPOT and proliferation assays: SI≥2.00
Method: Two 16-mer peptides, Tau 393-408[pS396/pS404] (T3.5 having the amino acid sequence of SEQ ID NO:2) and Tau393-408 (T3.6 having the amino acid sequence of SEQ ID NO:4) were tested in EpiScreen™ time course T-cell assays for the capacity to induce CD4^+ T-cell response in 51 human donors.
EpiScreen™ Time Course T-cell Proliferation Assays and IL-2 ELISPOT Assays
PBMCs from 51 human donors were stimulated with either peptide at a final concentration of 5 μM. For each donor, a reproducibility control (cells incubated with 100 μg/mL KLH), a benchmark clinical control (cells incubated with 0.3 μM humanized A33) and a culture medium only well were also included. Proliferation and IL-2 production were evaluated after different time points.
For proliferation assays and IL-2 ELISPOT assays, an empirical threshold of a Stimulation Index (SI) equal to or greater than two (SI≥2.00) has been previously established whereby samples inducing responses above this threshold are deemed positive whereas SI≥1.90 were considered as borderline responders.
Previous EpiScreen™ time course T-cell assays with a range of biologics have shown a clear correlation between the percentage of donor T-cell responses in the EpiScreen™ assay and the level of immunogenicity observed in the clinic. In general, protein therapeutics that induce >10% positive responses in the EpiScreen™ assay are associated with a significant risk of immunogenicity in the clinic.

Row | Substance | donors responding, taking into account borderline responses and donors responding in only one of the two assays [%] | donors responding in both IL-2 ELISPOT and proliferation assays [%]
1 | VYKSPVVSGDTSPRHL (tau peptide) [Tau 393-408, 16-mer non-phosphorylated Tau peptide] | 8 | 4
2 | VYK[pS]PVVSGDT[pS]PRHL [Tau 393-408 [pS396/pS404]] | 8 | 2
